The text below walks through data of patent US4100153A, “(D-Trp^5)-somatostatin and analogues thereof” (American Home Products Corporation, priority 1977, dated 1978).

Bridge positions count the residues as written; N and C are the ends. Square brackets hold non-standard residues; d marks the D form. Peptide text beside a SMILES is read from it.

What all share (type): in vivo
For one assay, the system named is insulin. As to the kind of experiment: Arginine-stimulated hormone secretion in Nembutal-treated rats, radioimmunoassay of insulin. The procedure:
(§1) Albino male rats were administered Nembutal intraperitoneally at a dose of 50 milligrams per kilogram. Fifteen minutes later a subcutaneous injection of the test compound or physiological saline was administered. Ten minutes later 0.5 milliliters of arginine (300 milligrams per milliliter, pH 7.2) is injected into the heart. Five minutes after receipt of the arginine the rats are decapitated and blood is collected into trasylol-EDTA. An appropriate aliquot was assayed for growth hormone, insulin, and glucagon by radioimmunoassay.

In another assay the test system is growth hormone. The assay is described as follows: Arginine-stimulated hormone secretion in Nembutal-treated rats, radioimmunoassay of growth hormone. The procedure: as §1
For the next assay, the system named is glucagon. As to the kind of experiment: Arginine-stimulated hormone secretion in Nembutal-treated rats, radioimmunoassay of glucagon. The procedure: as §1
A further assay deals with growth hormone secretion. The assay is described as follows: Effect on growth hormone secretion over time in rats treated with Nembutal, plasma GH by radioimmunoassay. The conditions noted are these: for Growth Hormone: dose 1,000 μg/kg. The protocol:
(D-Trp^5, D-Trp^8)-Somatostatin was also tested for its effect on growth hormone secretion in rats treated with Nembutal after 1, 2, 4, 5, 6, and 8 hours. Blood samples were obtained by cardiac puncture and plasma separated for radio immunoassay of GH concentration.

For the compound `C[C@H](N)C(=O)NCC(=O)N[C@H]1CSSC[C@@H](C(=O)O)NC(=O)[C@H](CO)NC(=O)[C@H]([C@@H](C)O)NC(=O)[C@H](Cc2ccccc2)NC(=O)[C@H]([C@@H](C)O)NC(=O)[C@H](CCCCN)NC(=O)[C@@H](Cc2c[nH]c3ccccc23)NC(=O)[C@H](Cc2ccccc2)NC(=O)[C@H](Cc2ccccc2)NC(=O)[C@@H](Cc2c[nH]c3ccccc23)NC(=O)[C@H](CCCCN)NC1=O` [(D-Trp^5, D-Trp^8)-Somatostatin, L-alanylglycyl-L-cysteinyl-L-lysyl-D-tryptophyl-L-phenylalanyl-L-phenylalanyl-D-tryptophyl-L-lysyl-L-threonyl-L-phenylalanyl-L-threonyl-L-seryl-L-cysteine cyclic (3→14)-disulfide, triacetate] (H-AGCK[dW]FF[dW]KTFTSC-OH; disulfide 3-14), the Insulin with insulin (dose 10 μg/kg subcutaneous, control 348 ± 36) stood at 183 ± 12 μU/ml; in the assay on insulin (dose 100 μg/kg subcutaneous, control 348 ± 36) it was 105 ± 9 μU/ml; in the assay with insulin (dose 1,000 μg/kg subcutaneous, control 314 ± 46), 33 ± 6 μU/ml. Also, in the assay with insulin (dose of 10 or 100 μg/kg), the “Effect on secretion of insulin (in words)” value is “effective agent for reducing secretion of growth hormone and insulin”. In addition, in the assay on insulin (higher dose (1 mg/kg)), the “Effect on release of insulin (in words)” value was “inhibited release of growth hormone, insulin”. The GH in the assay with growth hormone (dose 10 μg/kg subcutaneous, control 133 ± 32) is 40 ± 6 ng/mL; in the assay on growth hormone (dose 100 μg/kg subcutaneous, control 133 ± 32), 25 ± 5 ng/mL; in the assay with growth hormone (dose 1,000 μg/kg subcutaneous, blood 15 min after dosing, 5 min after arginine, control 259 ± 29) it was 52 ± 5 ng/mL. Moreover, the “Effect on secretion of growth hormone (in words)” value in the assay on growth hormone (dose of 10 or 100 μg/kg) is “effective agent for reducing secretion of growth hormone”. Also, the “Effect on release of growth hormone (in words)” value in the assay with growth hormone (higher dose (1 mg/kg)) was “inhibited release of growth hormone”. In addition, the Glucagon in the assay on glucagon (dose 10 μg/kg subcutaneous, control 44 ± 8, marked * not significant) is 36 ± 5 pg/mL; in the assay with glucagon (dose 100 μg/kg subcutaneous, control 44 ± 8, marked * not significant), 31 ± 5 pg/mL; in the assay on glucagon (dose 1,000 μg/kg subcutaneous, control 46 ± 7), 17 ± 4 pg/mL. Moreover, in the assay on glucagon (dose of 10 or 100 μg/kg), the “Effect on glucagon levels (in words)” value was “without materially affecting glucagon levels”. For the same compound, the “Effect on release of glucagon (in words)” value in the assay with glucagon (higher dose (1 mg/kg)) was “inhibited release of growth hormone, insulin, and glucagon”. In the assay on growth hormone secretion (1,000 μg/kg, 1 to 8 hours), the “Duration of inhibition of growth-hormone release (in words)” value was “long-acting inhibition of growth-hormone release”. The “Growth Hormone” value is 5 ± 2 ng/mL in the assay with growth hormone secretion (time 1 hr, control 61 ± 14); 16 ± 2 ng/mL with growth hormone secretion (time 2 hrs, control 227 ± 44); 32 ± 10 ng/mL in the assay with growth hormone secretion (time 4 hrs, control 84 ± 13); 16 ± 3 ng/mL with growth hormone secretion (time 5 hrs, control 73 ± 11); 22 ± 2 ng/mL with growth hormone secretion (time 6 hrs, control 156 ± 42); 31 ± 11 ng/mL in the assay with growth hormone secretion (time 8 hrs, control 55 ± 22).
